This passage reports IC50 results from patent US7173004B2, “Macrocyclic isoquinoline peptide inhibitors of hepatitis C virus” (Bristol-Myers Squibb Company, priority 2003, dated 2007).

In the assay the target is T1, HCV NS3/4A protease complex, BMS strain (genotype 1a) (UniProt P27958, C1454S/C1711G, species not given/STRAIN_BMS).
T1 construct: b1001: DNA encoding the recombinant HCV NS3/4A protease complex (amino acids 1027 to 1711) ... a three-lysine solubilizing tail was added at the 3′-end of the NS4A coding region; fused on or other part: Three-lysine solubilising tail at the C-terminus of NS4A; A His tag is implied by the pET21b vector and Ni-NTA purification
The assay can be described thus: Recombinant HCV NS3/4A protease complex FRET peptide assay, BMS strain. In kind it is biochemical. To be noted: NS3/4A BMS strain; activity range symbols. The gist of the method: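 Recombinant NS3/4A (aa 1027–1711) from H77C, J4L6S or BMS strains, with C1454S and C1711G mutations and three-lysine tail, expressed in E. coli and Ni-NTA/gel-filtration purified to >90%. Inhibition of cleavage of a FRET peptide substrate measured.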
As for `COc1ccc2c(OC3CC4C(=O)NC5(C(=O)NS(=O)(=O)C6CC6)CC5C=CCOCCCC(NC(=O)OC(C)(C)C(F)(F)F)C(=O)N4C3)nccc2c1` (centres unmarked) [Compound 39], the IC50 (commonly the concentration at which inhibition is half-maximal) was < 50 nM.
The figure for `COc1ccc2c(OC3CC4C(=O)NC5(C(=O)NS(=O)(=O)C6(C)CC6)CC5C=CCCCSCC(NC(=O)OC(C)C)C(=O)N4C3)nccc2c1` (centres unmarked) [Compound 41] is < 50 nM.
As for `COc1ccc2c(OC3CC4C(=O)NC5(C(=O)NS(=O)(=O)C6(C)CC6)CC5C=CCCCSCC(NC(=O)OCC(C)(C)C)C(=O)N4C3)nccc2c1` (centres unmarked) [Compound 42], the IC50 is < 50 nM.
The figure for `COc1ccc2c(OC3CC4C(=O)NC5(C(=O)NS(=O)(=O)C6(C)CC6)CC5C=CCCCSCC(NC(=O)NC5CCCC5)C(=O)N4C3)nccc2c1` (centres unmarked) [Compound 43] is < 50 nM.
The same measure for `CCC1(S(=O)(=O)NC(=O)C23CC2C=CCCCSCC(NC(=O)OC(C)C)C(=O)N2CC(Oc4nccc5cc(OC)ccc45)CC2C(=O)N3)CC1` (centres unmarked) [Compound 44]: < 50 nM; for `CCC1(S(=O)(=O)NC(=O)C23CC2C=CCCCSCC(NC(=O)OCC(C)(C)C)C(=O)N2CC(Oc4nccc5cc(OC)ccc45)CC2C(=O)N3)CC1` (centres unmarked) [Compound 45]: < 50 nM.
The figure for `CCC1(S(=O)(=O)NC(=O)C23CC2C=CCCCSCC(NC(=O)NC2CCCC2)C(=O)N2CC(Oc4nccc5cc(OC)ccc45)CC2C(=O)N3)CC1` (centres unmarked) [Compound 46] is < 50 nM; for `CCC1(S(=O)(=O)NC(=O)C23CC2C=CCCC[S+]([O-])CC(NC(=O)OC(C)(C)C)C(=O)N2CC(Oc4nccc5cc(OC)ccc45)CC2C(=O)N3)CC1` (centres unmarked) [Compound 47] it is < 50 nM; for `CCC1(S(=O)(=O)NC(=O)C23CC2C=CCCCS(=O)(=O)CC(NC(=O)OC(C)(C)C)C(=O)N2CC(Oc4nccc5cc(OC)ccc45)CC2C(=O)N3)CC1` (centres unmarked) [Compound 48] it is < 50 nM.
On to `COc1ccc2c(OC3CC4C(=O)NC5(C(=O)NS(=O)(=O)C6(C)CC6)CC5C=CCCCS(=O)(=O)CC(NC(=O)OC(C)(C)C)C(=O)N4C3)nccc2c1` (centres unmarked) [Compound 49], for which the IC50 was 50 to 500 nM.
Consider `CC1(OC(=O)NC2CCCCCC=CC3CC3(C(=O)NS(=O)(=O)C3CC3)NC(=O)C3CC(Oc4nccc5ccccc45)CN3C2=O)CCCC1` (centres unmarked) [Compound 50], for which the IC50 was < 50 nM.
As for `CC(C)(OC(=O)NC1CCCCCC=CC2CC2(C(=O)NS(=O)(=O)C2CC2)NC(=O)C2CC(Oc3nccc4ccccc34)CN2C1=O)C(F)(F)F` (centres unmarked) [Compound 51], the IC50 was < 50 nM.
The figure for `CC(C)(CCl)OC(=O)NC1CCCCCC=CC2CC2(C(=O)NS(=O)(=O)C2CC2)NC(=O)C2CC(Oc3nccc4ccccc34)CN2C1=O` (centres unmarked) [Compound 52] is < 50 nM; for `COc1ccc2c(OC3CC4C(=O)NC5(C(=O)NS(=O)(=O)C6(C)CC6)CC5C=CCCCCCC(NC(=O)OC(C)(C)C)C(=O)N4C3)nccc2c1` (centres unmarked) [Compound 53] it is < 50 nM; for `CCC1(S(=O)(=O)NC(=O)C23CC2C=CCCCCCC(NC(=O)OC(C)(C)C)C(=O)N2CC(Oc4nccc5cc(OC)ccc45)CC2C(=O)N3)CC1` (centres unmarked) [Compound 54] it is < 50 nM.
The figure for `CC1(OC(=O)N[C@H]2CCCCC/C=C\[C@@H]3C[C@@]3(C(=O)NS(=O)(=O)C3CC3)NC(=O)[C@@H]3C[C@@H](Oc4nccc5ccccc45)CN3C2=O)CCC1` [Compound 56, [(Z)-(1S,4R,14S,18R)-4-cyclopropanesulfonylaminocarbonyl-18-(isoquinolin-1-yloxy)-2,15-dioxo-3,16-diaza-tricyclo[14.3.0.0^4,6]nonadec-7-en-14-yl]-carbamic acid 1-methyl-cyclobutyl ester] is < 50 nM.
The figure for `CC(C)(C)OC(=O)NC1CCCCCC=CC2CC2(C(=O)NS(=O)(=O)C2CC2)NC(=O)C2CC(Oc3nc(Cl)cc4ccccc34)CN2C1=O` (centres unmarked) [Compound 57] is < 50 nM.
